Experimental data from patent publication US20220314021A1, “METHOD FOR D[…] […] PHOTODYNAMIC THERAPY AND PHOTODYNAMIC THERAPY APPARATUS” (OTSUKA ELECTRONICS CO., LTD., priority 2019, published 2022).

Tested on: Jurkat cells derived from human T-cell leukemia
Experiment: cell killing assay by PDT in Jurkat cells (630 nm, Cell Counting Kit-8)
Type: cell-based
Conditions: 5-ALA loading 0-1 mmol/L, light irradiation 30 J/cm^2, 630 nm
Procedure: For Jurkat cells derived from human T-cell leukemia which is a disease classification different from that of the human adult T-cell leukemia/lymphoma clinically, amounts of protoporphyrin IX accumulated in the cells by 5-ALA loading (0, 0.0625, 0.125, 0.25, 0.5 and 1 mmol/L) were measured using the fluorescence detection high-performance liquid chromatography method, and then light irradiation (30 J/cm^2) with a central wavelength of 630 nm was further performed as the cell killing assay by PDT, and then cell viabilities (%) using the cell counting kit (Cell Counting Kit-8) were calculated.

NCC(=O)CCC(=O)O [5-ALA, 5-aminolevulinic acid]
cell viabilities versus the regression curve of FIG. 3: located on the regression curve described in FIG. 3
